Assay results taken from patent US9951066B2, “Compositions, uses and methods for making them” (Pimera, Inc., priority 2014, dated 2018).
Structures can show the parent of a compound that is named as a salt. Where two headings read alike, the source gives them in different places.

Assays:
Type in all cases: cell-based
SKM_1_AV = assay: Alamar Blue cell viability assay, SKM_1_AV; details: 96 h incubation, read-out: cell proliferation inhibition SKM_1_AV
Procedure: (§1) Inhibitory activity on cell proliferation of representative compounds of the invention was determined using an Alamar Blue cell viability assay as described hereafter.
(§2) 3000 cancer cells in 100 uL of cell culture media were plated in each well of a 96-well clear bottom, black wall cell culture-pretreated plate.
(§3) The next day compounds are serially diluted (3-fold in cell culture media) across a 96-well polypropylene mother plate from row A to row F, to yield 6 concentrations (10 uM, 3.3 uM, 1.1 uM, 370 nM, 124 nM and 41 nM) for each test compound. Rows G and H contain only DMSO.
(§4) Once titrations are made, the media in plates with cells were disposed and 100 μL of drug dilutions are transferred to plates with cells. After a ninety six-hour incubation at 37° C., 10 uL of resazurin solution from Alamar Blue Cell Viability kit (Invitrogen, Carlsbad, Calif.) was added to the media and cells were incubated at 37° C. for three more hours. At the end of this incubation the production of resofurin was measured using Spectrmax M2 microplate reader (Molecular Devices, Sunnyvale, Calif.)

DLD-1 = assay: Alamar Blue cell viability assay, DLD-1; details: Homo sapiens, 96 h incubation, read-out: cell proliferation inhibition DLD-1
Procedure: as §1, §2, §3, §4

A375 cell line = assay: Alamar Blue cell viability assay, A375; details: Homo sapiens, A-375, cell proliferation inhibition, Alamar Blue, 96 h incubation
Procedure: as §1, §2, §3, §4

HT-1080 = assay: Alamar Blue cell viability assay, HT-1080; details: Homo sapiens, 96 h incubation, read-out: cell proliferation inhibition HT-1080
Procedure: as §1, §2, §3, §4

NCI-H1299 = assay: Alamar Blue cell viability assay, NCI-H1299; details: Homo sapiens, 96 h incubation, read-out: cell proliferation inhibition NCI-H1299
Procedure: as §1, §2, §3, §4

HCT-116 = assay: Alamar Blue cell viability assay, HCT-116; details: Homo sapiens, 96 h incubation, read-out: cell proliferation inhibition HCT-116
Procedure: as §1, §2, §3, §4

NB4-Av = assay: Alamar Blue cell viability assay, NB4-Av; details: 96 h incubation, read-out: cell proliferation inhibition NB4-Av
Procedure: as §1, §2, §3, §4

WM-115 = assay: Alamar Blue cell viability assay, WM-115; details: Homo sapiens, 96 h incubation, read-out: cell proliferation inhibition WM-115
Procedure: as §1, §2, §3, §4

MCF7 = assay: Alamar Blue cell viability assay, MCF7; details: Homo sapiens, 96 h incubation, read-out: cell proliferation inhibition MCF7
Procedure: as §1, §2, §3, §4

AGS = assay: Alamar Blue cell viability assay, AGS; details: Homo sapiens, 96 h incubation, read-out: cell proliferation inhibition AGS
Procedure: as §1, §2, §3, §4

NOMO-1 = assay: Alamar Blue cell viability assay, NOMO-1; details: Homo sapiens, 96 h incubation, read-out: cell proliferation inhibition NOMO-1
Procedure: as §1, §2, §3, §4

B16-F10 = assay: Alamar Blue cell viability assay, B16-F10; details: Mus musculus, 96 h incubation, read-out: cell proliferation inhibition B16-F10
Procedure: as §1, §2, §3, §4

LnCAP = assay: Alamar Blue cell viability assay, LnCAP; details: Homo sapiens, 96 h incubation, read-out: cell proliferation inhibition LnCAP
Procedure: as §1, §2, §3, §4

PC-3 = assay: Alamar Blue cell viability assay, PC-3; details: Homo sapiens, 96 h incubation, read-out: cell proliferation inhibition PC-3
Procedure: as §1, §2, §3, §4

SKM-1 = assay: Alamar Blue cell viability assay, SKM-1; details: Homo sapiens, 96 h incubation, read-out: cell proliferation inhibition SKM-1
Procedure: as §1, §2, §3, §4

CT26 = assay: Alamar Blue cell viability assay, CT26; details: Mus musculus, 96 h incubation, read-out: cell proliferation inhibition CT26
Procedure: as §1, §2, §3, §4

A549 = assay: Alamar Blue cell viability assay, A549; details: Homo sapiens, 96 h incubation, read-out: cell proliferation inhibition A549
Procedure: as §1, §2, §3, §4

ES.2 = assay: Alamar Blue cell viability assay, ES.2; details: Homo sapiens
Procedure: as §1, §2, §3, §4

Hs.294T = assay: Alamar Blue cell viability assay, Hs.294T; details: Homo sapiens, 96 h incubation, read-out: cell proliferation inhibition Hs.294T
Procedure: as §1, §2, §3, §4

ML-2 = assay: Alamar Blue cell viability assay, ML-2; details: Homo sapiens, 96 h incubation, read-out: cell proliferation inhibition ML-2
Procedure: as §1, §2, §3, §4

Hep G2 = assay: Alamar Blue cell viability assay, Hep G2; details: Homo sapiens, HepG2, 96 h incubation, read-out: cell proliferation inhibition Hep G2
Procedure: as §1, §2, §3, §4

4T1 = assay: Alamar Blue cell viability assay, 4T1; details: Mus musculus, 96 h incubation, read-out: cell proliferation inhibition 4T1
Procedure: as §1, §2, §3, §4

KG-1 = assay: Alamar Blue cell viability assay, KG-1; details: Homo sapiens, 96 h incubation, read-out: cell proliferation inhibition KG-1
Procedure: as §1, §2, §3, §4

MDA-MB-231 = assay: Alamar Blue cell viability assay, MDA-MB-231; details: Homo sapiens, 96 h incubation, read-out: cell proliferation inhibition MDA-MB-231
Procedure: as §1, §2, §3, §4

A2058 = assay: Alamar Blue cell viability assay, A2058; details: Homo sapiens, cell proliferation inhibition, 96 h incubation, read-out: Pharmaceutical activity IC50 A2058
Procedure: as §1, §2, §3, §4

JHOC7 = assay: Alamar Blue cell viability assay, JHOC7 ovarian cell line; details: 96 h incubation, read-out: IC50 in ovarian cell lines JHOC7
Procedure: as §1, §2, §3, §4

2008 = assay: Alamar Blue cell viability assay, 2008; details: cell proliferation inhibition, 96 h incubation, read-out: Pharmaceutical activity IC50 2008
Procedure: as §1, §2, §3, §4

JHOC9 = assay: Alamar Blue cell viability assay, JHOC9 ovarian cell line; details: 96 h incubation, read-out: IC50 in ovarian cell lines JHOC9
Procedure: as §1, §2, §3, §4

Malme-3M = assay: Alamar Blue cell viability assay, Malme-3M; details: Homo sapiens, cell proliferation inhibition, 96 h incubation, read-out: Pharmaceutical activity IC50 Malme-3M
Procedure: as §1, §2, §3, §4

kuramochi = assay: Alamar Blue cell viability assay, kuramochi ovarian cell line; details: 96 h incubation, read-out: IC50 in ovarian cell lines kuramochi
Procedure: as §1, §2, §3, §4

EF-21 = assay: Alamar Blue cell viability assay, EF-21 ovarian cell line; details: 96 h incubation, read-out: IC50 in ovarian cell lines EF-21
Procedure: as §1, §2, §3, §4

TOV112D = assay: Alamar Blue cell viability assay, TOV112D ovarian cell line; details: Homo sapiens, 96 h incubation, read-out: IC50 in ovarian cell lines TOV112D
Procedure: as §1, §2, §3, §4

A2780 = assay: Alamar Blue cell viability assay, A2780; details: Homo sapiens, cell proliferation inhibition, 96 h incubation, read-out: Pharmaceutical activity IC50 A2780
Procedure: as §1, §2, §3, §4

U-87 MG = assay: Alamar Blue cell viability assay, U-87 MG; details: Homo sapiens, cell proliferation inhibition, 96 h incubation, read-out: Pharmaceutical activity IC50 U-87 MG
Procedure: as §1, §2, §3, §4

SK-MEL 28 = assay: Alamar Blue cell viability assay, SK-MEL 28; details: Homo sapiens, cell proliferation inhibition, 96 h incubation, read-out: Pharmaceutical activity IC50 SK-MEL 28
Procedure: as §1, §2, §3, §4

JHOM1 = assay: Alamar Blue cell viability assay, JHOM1 ovarian cell line; details: 96 h incubation, read-out: IC50 in ovarian cell lines JHOM1
Procedure: as §1, §2, §3, §4

[1] = read-out: Pharmaceutical activity IC50 A375
[2] = Table 2, 96 h incubation, read-out: cell proliferation inhibition ES.2
[3] = Table 4, read-out: Pharmaceutical activity in A375 cell line IC50

SMILES: CN1CCCN(c2ccc3cc(C(=O)O)c4nc5ccccc5n4c3n2)CC1 [Compound 1A, 2-(4-methyl-[1,4]diazepan-1-yl)-1,7,11b-triaza-benzo[c]fluorene-6-carboxylate sodium salt]
- IC50 (SKM_1_AV): < 1 µM
- IC50 (DLD-1): 1 to 5 µM
- IC50 (A375 cell line; [1]): < 1 µM
- IC50 (HT-1080): 1 to 5 µM
- IC50 (NCI-H1299): 1 to 5 µM
- IC50 (HCT-116): < 1 µM
- IC50 (NB4-Av): < 1 µM
- IC50 (WM-115): < 1 µM
- IC50 (MCF7): 1 to 5 µM
- IC50 (AGS): 1 to 5 µM
- IC50 (NOMO-1): < 1 µM
- IC50 (B16-F10): 5 to 10 µM
- IC50 (LnCAP): 5 to 10 µM
- IC50 (PC-3): 1 to 5 µM
- IC50 (SKM-1): < 1 µM
- IC50 (CT26): 5 to 10 µM
- IC50 (A549): 5 to 10 µM
- IC50 (ES.2; [2]): < 1 µM
- IC50 (Hs.294T): < 1 µM
- IC50 (ML-2): < 1 µM
- IC50 (Hep G2): < 1 µM
- IC50 (4T1): 5 to 10 µM
- IC50 (KG-1): < 1 µM
- IC50 (MDA-MB-231): 1 to 5 µM

SMILES: Cc1cnc(CNC(=O)c2cc3ccc(N4CCCN(C)CC4)nc3n3c2nc2ccccc23)cn1 [Compound 2E, 2-(4-methyl-[1,4]diazepan-1-yl)-1,7,11b-triazabenzo[c]fluorene-6-carboxylic acid (5-methylpyrazin-2-ylmethyl)-amide]
- IC50 (A375 cell line; [1]): < 1 µM
- IC50 (A2058): 5 to 10 µM

SMILES: CNC(=O)c1cc2ccc(N3CCCN(C)CC3)nc2n2c1nc1ccccc12 [Compound 2G, 2-(4-methyl-[1,4]diazepan-1-yl)-1,7,11b-triazabenzo[c]fluorene-6-carboxylic acid methylamide]
- IC50 (JHOC7): < 1 µM
- IC50 (SKM_1_AV): < 1 µM
- IC50 2008: < 1 µM
- IC50 (JHOC9): < 1 µM
- IC50 (DLD-1): < 1 µM
- IC50 (A375 cell line; [1]): < 1 µM
- IC50 (HT-1080): 1 to 5 µM
- IC50 (Malme-3M): < 1 µM
- IC50 (A2058): < 1 µM
- IC50 (NCI-H1299): 1 to 5 µM
- IC50 (HCT-116): < 1 µM
- IC50 (kuramochi): < 1 µM
- IC50 (NB4-Av): < 1 µM
- IC50 (WM-115): 1 to 5 µM
- IC50 (MCF7): 1 to 5 µM
- IC50 (AGS): < 1 µM
- IC50 (NOMO-1): < 1 µM
- IC50 (EF-21): < 1 µM
- IC50 (B16-F10): 1 to 5 µM
- IC50 (TOV112D): < 1 µM
- IC50 (A2780): < 1 µM
- IC50 (U-87 MG): < 1 µM
- IC50 (LnCAP): 1 to 5 µM
- IC50 (PC-3): < 1 µM
- IC50 (SKM-1): < 1 µM
- IC50 (CT26): 1 to 5 µM
- IC50 (A549): 1 to 5 µM
- IC50 (ES.2; Table 1, cell proliferation inhibition, 96 h incubation, read-out: Pharmaceutical activity IC50 ES.2): < 1 µM
- IC50 (ES.2; [2]): < 1 µM
- IC50 (Hs.294T): < 1 µM
- IC50 (ML-2): < 1 µM
- IC50 (Hep G2): < 1 µM
- IC50 (4T1): 5 to 10 µM
- IC50 (KG-1): < 1 µM
- IC50 (SK-MEL 28): < 1 µM
- IC50 (JHOM1): < 1 µM
- IC50 (MDA-MB-231): < 1 µM

SMILES: C[C@@H]1CN(c2ccc3cc(C#N)c4nc5ccccc5n4c3n2)C[C@H](C)N1 [Compound 3A, 2-((3S,5R)-3,5-dimethylpiperazin-1-yl)-1,7,11b-triaza-benzo[c]fluorene-6-carbonitrile]
- IC50 (SKM_1_AV): < 1 µM
- IC50 (DLD-1): < 1 µM
- IC50 (A375 cell line; [1]): < 1 µM
- IC50 (HT-1080): 5 to 10 µM
- IC50 (NCI-H1299): 5 to 10 µM
- IC50 (HCT-116): < 1 µM
- IC50 (NB4-Av): < 1 µM
- IC50 (MCF7): 5 to 10 µM
- IC50 (AGS): < 1 µM
- IC50 (NOMO-1): < 1 µM
- IC50 (B16-F10): 1 to 5 µM
- IC50 (LnCAP): 5 to 10 µM
- IC50 (PC-3): 1 to 5 µM
- IC50 (SKM-1): < 1 µM
- IC50 (CT26): 5 to 10 µM
- IC50 (A549): 5 to 10 µM
- IC50 (ML-2): < 1 µM
- IC50 (Hep G2): < 1 µM
- IC50 (4T1): 5 to 10 µM
- IC50 (KG-1): < 1 µM
- IC50 (MDA-MB-231): < 1 µM

SMILES: CCN1CCN(c2ccc3cc(C#N)c4nc5ccccc5n4c3n2)CC1 [Compound 3B, 2-(4-ethylpiperazin-1-yl)-1,7,11b-triaza-benzo[c]fluorene-6-carbonitrile]
- IC50 (A375 cell line; [1]): < 1 µM
- IC50 (SKM-1): < 1 µM
- IC50 (Hep G2): < 1 µM

SMILES: O=C(NCCN1CCOCC1)c1cc2cnccc2n2c1nc1ccccc12 [Compound 13F, 3,7,11b-Triaza-benzo[c]fluorene-6-carboxylic acid (2-morpholin-4-yl-ethyl)-amide]
- IC50 (A375 cell line; [3]): 5 to 10 µM

SMILES: O=C(NCCN1CCCC1)c1cc2cnccc2n2c1nc1ccccc12 [Compound 13G]
- IC50 (A375 cell line; [3]): < 1 µM
